Assay results reported in ChEMBL document CHEMBL4765467, “Improving Thermodynamic Stability and Anticoagulant Activity of a Thrombin Binding Aptamer by Incorporation of 8-trifluoromethyl-2'-deoxyguanosine” (J Med Chem, 2021).
The source made the active and inactive calls. No cut-off for these calls is given here.

Legend:
Plasma [1] = assay: Anticoagulant activity in human plasma assessed prothrombin time at 0.25 to 1 uM; format: functional; details: dose 0.25-1 µM
[2] = Thermodynamic stability assessed as change in melting temperature by CD spectroscopy relative to TBA; format: physicochemical
[3] = Stability in 50% human plasma assessed as compound degradation at 50 uM measured within 3 hrs by PAGE analysis; format: ADME, cell-free
Plasma [4] = assay: Anticoagulant activity in human plasma assessed prothrombin time in presence of complementary sequence of TBA; format: functional, cell-free
Plasma [5] = assay: Anticoagulant activity in human plasma assessed prothrombin time in presence of 1.5 fold complementary sequence of TBA; format: functional, cell-free
[6] = Stability in 50% human plasma assessed as compound degradation at 50 uM measured within 3 hrs by PAGE analysis relative to TBA; format: ADME, cell-free

SMILES	PT (Plasma [1]) [s]	deltaTm [2] [°C]	Stabilty [3]	Activity (Plasma [4])	Activity (Plasma [5])	Stabilty [6]
Cc1cn([C@H]2C[C@H](OP(=O)(O)OC[C@H]3O[C@@H](n4cnc5c(=O)[nH]c(N)nc54)C[C@@H]3OP(=O)(O)OC[C@H]3O[C@@H](n4cnc5c(=O)[nH]c(N)nc54)C[C@@H]3O)[C@@H](COP(=O)(O)O[C@H]3C[C@H](n4cc(C)c(=O)[nH]c4=O)O[C@@H]3COP(=O)(O)O[C@H]3C[C@H](n4cnc5c(=O)[nH]c(N)nc54)O[C@@H]3COP(=O)(O)O[C@H]3C[C@H](n4cnc5c(=O)[nH]c(N)nc54)O[C@@H]3COP(=O)(O)O[C@H]3C[C@H](n4cc(C)c(=O)[nH]c4=O)O[C@@H]3COP(=O)(O)O[C@H]3C[C@H](n4cnc5c(=O)[nH]c(N)nc54)O[C@@H]3COP(=O)(O)O[C@H]3C[C@H](n4cc(C)c(=O)[nH]c4=O)O[C@@H]3COP(=O)(O)O[C@H]3C[C@H](n4cnc5c(=O)[nH]c(N)nc54)O[C@@H]3COP(=O)(O)O[C@H]3C[C@H](n4c(C(F)(F)F)nc5c(=O)[nH]c(N)nc54)O[C@@H]3COP(=O)(O)O[C@H]3C[C@H](n4cc(C)c(=O)[nH]c4=O)O[C@@H]3COP(=O)(O)O[C@H]3C[C@H](n4cc(C)c(=O)[nH]c4=O)O[C@@H]3COP(=O)(O)O[C@H]3C[C@H](n4cnc5c(=O)[nH]c(N)nc54)O[C@@H]3COP(=O)(O)O[C@H]3C[C@H](n4cnc5c(=O)[nH]c(N)nc54)O[C@@H]3COP(=O)(O)O)O2)c(=O)[nH]c1=O	26	8.1	Unstable			
Cc1cn([C@H]2C[C@H](OP(=O)(O)OC[C@H]3O[C@@H](n4cnc5c(=O)[nH]c(N)nc54)C[C@@H]3OP(=O)(O)OC[C@H]3O[C@@H](n4cnc5c(=O)[nH]c(N)nc54)C[C@@H]3OP(=O)(O)OC[C@H]3O[C@@H](n4cc(C)c(=O)[nH]c4=O)C[C@@H]3OP(=O)(O)OC[C@H]3O[C@@H](n4c(C(F)(F)F)nc5c(=O)[nH]c(N)nc54)C[C@@H]3OP(=O)(O)OC[C@H]3O[C@@H](n4cc(C)c(=O)[nH]c4=O)C[C@@H]3OP(=O)(O)OC[C@H]3O[C@@H](n4cnc5c(=O)[nH]c(N)nc54)C[C@@H]3OP(=O)(O)OC[C@H]3O[C@@H](n4cnc5c(=O)[nH]c(N)nc54)C[C@@H]3OP(=O)(O)OC[C@H]3O[C@@H](n4cc(C)c(=O)[nH]c4=O)C[C@@H]3OP(=O)(O)OC[C@H]3O[C@@H](n4cc(C)c(=O)[nH]c4=O)C[C@@H]3OP(=O)(O)OC[C@H]3O[C@@H](n4cnc5c(=O)[nH]c(N)nc54)C[C@@H]3OP(=O)(O)OC[C@H]3O[C@@H](n4cnc5c(=O)[nH]c(N)nc54)C[C@@H]3O)[C@@H](COP(=O)(O)O[C@H]3C[C@H](n4cc(C)c(=O)[nH]c4=O)O[C@@H]3COP(=O)(O)O[C@H]3C[C@H](n4cnc5c(=O)[nH]c(N)nc54)O[C@@H]3COP(=O)(O)O[C@H]3C[C@H](n4cnc5c(=O)[nH]c(N)nc54)O[C@@H]3COP(=O)(O)O)O2)c(=O)[nH]c1=O	19.1	-3.1	Unstable			
Cc1cn([C@H]2C[C@H](OP(=O)(O)OC[C@H]3O[C@@H](n4cnc5c(=O)[nH]c(N)nc54)C[C@@H]3OP(=O)(O)OC[C@H]3O[C@@H](n4cnc5c(=O)[nH]c(N)nc54)C[C@@H]3OP(=O)(O)OC[C@H]3O[C@@H](n4cc(C)c(=O)[nH]c4=O)C[C@@H]3OP(=O)(O)OC[C@H]3O[C@@H](n4cnc5c(=O)[nH]c(N)nc54)C[C@@H]3OP(=O)(O)OC[C@H]3O[C@@H](n4cc(C)c(=O)[nH]c4=O)C[C@@H]3OP(=O)(O)OC[C@H]3O[C@@H](n4cnc5c(=O)[nH]c(N)nc54)C[C@@H]3OP(=O)(O)OC[C@H]3O[C@@H](n4cnc5c(=O)[nH]c(N)nc54)C[C@@H]3OP(=O)(O)OC[C@H]3O[C@@H](n4cc(C)c(=O)[nH]c4=O)C[C@@H]3OP(=O)(O)OC[C@H]3O[C@@H](n4cc(C)c(=O)[nH]c4=O)C[C@@H]3OP(=O)(O)OC[C@H]3O[C@@H](n4cnc5c(=O)[nH]c(N)nc54)C[C@@H]3OP(=O)(O)OC[C@H]3O[C@@H](n4cnc5c(=O)[nH]c(N)nc54)C[C@@H]3O)[C@@H](COP(=O)(O)O[C@H]3C[C@H](n4cc(C)c(=O)[nH]c4=O)O[C@@H]3COP(=O)(O)O[C@H]3C[C@H](n4c(C(F)(F)F)nc5c(=O)[nH]c(N)nc54)O[C@@H]3COP(=O)(O)O[C@H]3C[C@H](n4cnc5c(=O)[nH]c(N)nc54)O[C@@H]3COP(=O)(O)O)O2)c(=O)[nH]c1=O	9.9	-17.3	Unstable			
Cc1cn([C@H]2C[C@H](OP(=O)(O)OC[C@H]3O[C@@H](n4cnc5c(=O)[nH]c(N)nc54)C[C@@H]3OP(=O)(O)OC[C@H]3O[C@@H](n4cnc5c(=O)[nH]c(N)nc54)C[C@@H]3OP(=O)(O)OC[C@H]3O[C@@H](n4cc(C)c(=O)[nH]c4=O)C[C@@H]3OP(=O)(O)OC[C@H]3O[C@@H](n4cnc5c(=O)[nH]c(N)nc54)C[C@@H]3OP(=O)(O)OC[C@H]3O[C@@H](n4cc(C)c(=O)[nH]c4=O)C[C@@H]3OP(=O)(O)OC[C@H]3O[C@@H](n4cnc5c(=O)[nH]c(N)nc54)C[C@@H]3OP(=O)(O)OC[C@H]3O[C@@H](n4cnc5c(=O)[nH]c(N)nc54)C[C@@H]3OP(=O)(O)OC[C@H]3O[C@@H](n4cc(C)c(=O)[nH]c4=O)C[C@@H]3OP(=O)(O)OC[C@H]3O[C@@H](n4cc(C)c(=O)[nH]c4=O)C[C@@H]3OP(=O)(O)OC[C@H]3O[C@@H](n4cnc5c(=O)[nH]c(N)nc54)C[C@@H]3OP(=O)(O)OC[C@H]3O[C@@H](n4cnc5c(=O)[nH]c(N)nc54)C[C@@H]3O)[C@@H](COP(=O)(O)O[C@H]3C[C@H](n4cc(C)c(=O)[nH]c4=O)O[C@@H]3COP(=O)(O)O[C@H]3C[C@H](n4cnc5c(=O)[nH]c(N)nc54)O[C@@H]3COP(=O)(O)O[C@H]3C[C@H](n4c(C(F)(F)F)nc5c(=O)[nH]c(N)nc54)O[C@@H]3COP(=O)(O)O)O2)c(=O)[nH]c1=O	18.3	5.7	Unstable			
Cc1cn([C@H]2C[C@H](OP(=O)(O)OC[C@H]3O[C@@H](n4cnc5c(=O)[nH]c(N)nc54)C[C@@H]3OP(=O)(O)OC[C@H]3O[C@@H](n4cc(C)c(=O)[nH]c4=O)C[C@@H]3OP(=O)(O)OC[C@H]3O[C@@H](n4cnc5c(=O)[nH]c(N)nc54)C[C@@H]3OP(=O)(O)OC[C@H]3O[C@@H](n4cnc5c(=O)[nH]c(N)nc54)C[C@@H]3OP(=O)(O)OC[C@H]3O[C@@H](n4cc(C)c(=O)[nH]c4=O)C[C@@H]3OP(=O)(O)OC[C@H]3O[C@@H](n4cc(C)c(=O)[nH]c4=O)C[C@@H]3OP(=O)(O)OC[C@H]3O[C@@H](n4cnc5c(=O)[nH]c(N)nc54)C[C@@H]3OP(=O)(O)OC[C@H]3O[C@@H](n4cnc5c(=O)[nH]c(N)nc54)C[C@@H]3O)[C@@H](COP(=O)(O)O[C@H]3C[C@H](n4cc(C)c(=O)[nH]c4=O)O[C@@H]3COP(=O)(O)O[C@H]3C[C@H](n4cnc5c(=O)[nH]c(N)nc54)O[C@@H]3COP(=O)(O)O[C@H]3C[C@H](n4cnc5c(=O)[nH]c(N)nc54)O[C@@H]3COP(=O)(O)O[C@H]3C[C@H](n4cc(C)c(=O)[nH]c4=O)O[C@@H]3COP(=O)(O)O[C@H]3C[C@H](n4cc(C)c(=O)[nH]c4=O)O[C@@H]3COP(=O)(O)O[C@H]3C[C@H](n4cnc5c(=O)[nH]c(N)nc54)O[C@@H]3COP(=O)(O)O[C@H]3C[C@H](n4cnc5c(=O)[nH]c(N)nc54)O[C@@H]3COP(=O)(O)O)O2)c(=O)[nH]c1=O	19.2		Stable	inactive	inactive	
Cc1cn([C@H]2C[C@H](OP(=O)(O)OC[C@H]3O[C@@H](n4cnc5c(=O)[nH]c(N)nc54)C[C@@H]3OP(=O)(O)OC[C@H]3O[C@@H](n4cnc5c(=O)[nH]c(N)nc54)C[C@@H]3OP(=O)(O)OC[C@H]3O[C@@H](n4cc(C)c(=O)[nH]c4=O)C[C@@H]3OP(=O)(O)OC[C@H]3O[C@@H](n4cnc5c(=O)[nH]c(N)nc54)C[C@@H]3OP(=O)(O)OC[C@H]3O[C@@H](n4cc(C)c(=O)[nH]c4=O)C[C@@H]3OP(=O)(O)OC[C@H]3O[C@@H](n4c(C(F)(F)F)nc5c(=O)[nH]c(N)nc54)C[C@@H]3OP(=O)(O)OC[C@H]3O[C@@H](n4cnc5c(=O)[nH]c(N)nc54)C[C@@H]3OP(=O)(O)OC[C@H]3O[C@@H](n4cc(C)c(=O)[nH]c4=O)C[C@@H]3OP(=O)(O)OC[C@H]3O[C@@H](n4cc(C)c(=O)[nH]c4=O)C[C@@H]3OP(=O)(O)OC[C@H]3O[C@@H](n4cnc5c(=O)[nH]c(N)nc54)C[C@@H]3OP(=O)(O)OC[C@H]3O[C@@H](n4cnc5c(=O)[nH]c(N)nc54)C[C@@H]3O)[C@@H](COP(=O)(O)O[C@H]3C[C@H](n4cc(C)c(=O)[nH]c4=O)O[C@@H]3COP(=O)(O)O[C@H]3C[C@H](n4cnc5c(=O)[nH]c(N)nc54)O[C@@H]3COP(=O)(O)O[C@H]3C[C@H](n4cnc5c(=O)[nH]c(N)nc54)O[C@@H]3COP(=O)(O)O)O2)c(=O)[nH]c1=O	21.9	7.6	Unstable			
Cc1cn([C@H]2C[C@H](OP(=O)(O)OC[C@H]3O[C@@H](n4c(C(F)(F)F)nc5c(=O)[nH]c(N)nc54)C[C@@H]3OP(=O)(O)OC[C@H]3O[C@@H](n4cnc5c(=O)[nH]c(N)nc54)C[C@@H]3OP(=O)(O)OC[C@H]3O[C@@H](n4cc(C)c(=O)[nH]c4=O)C[C@@H]3OP(=O)(O)OC[C@H]3O[C@@H](n4cnc5c(=O)[nH]c(N)nc54)C[C@@H]3OP(=O)(O)OC[C@H]3O[C@@H](n4cc(C)c(=O)[nH]c4=O)C[C@@H]3OP(=O)(O)OC[C@H]3O[C@@H](n4c(C(F)(F)F)nc5c(=O)[nH]c(N)nc54)C[C@@H]3OP(=O)(O)OC[C@H]3O[C@@H](n4cnc5c(=O)[nH]c(N)nc54)C[C@@H]3OP(=O)(O)OC[C@H]3O[C@@H](n4cc(C)c(=O)[nH]c4=O)C[C@@H]3OP(=O)(O)OC[C@H]3O[C@@H](n4cc(C)c(=O)[nH]c4=O)C[C@@H]3OP(=O)(O)OC[C@H]3O[C@@H](n4c(C(F)(F)F)nc5c(=O)[nH]c(N)nc54)C[C@@H]3OP(=O)(O)OC[C@H]3O[C@@H](n4cnc5c(=O)[nH]c(N)nc54)C[C@@H]3O)[C@@H](COP(=O)(O)O[C@H]3C[C@H](n4cc(C)c(=O)[nH]c4=O)O[C@@H]3COP(=O)(O)O[C@H]3C[C@H](n4cnc5c(=O)[nH]c(N)nc54)O[C@@H]3COP(=O)(O)O[C@H]3C[C@H](n4c(C(F)(F)F)nc5c(=O)[nH]c(N)nc54)O[C@@H]3COP(=O)(O)O)O2)c(=O)[nH]c1=O	18.6	30	Unstable		Active	Stable
